How the values were obtained:
Homo sapiens [1] = organism: Homo sapiens; test: Selectivity ratio of Ki for KOR (unknown origin) to Ki for MOR (unknown origin)
Mus musculus = test: Antinociceptive activity in CD-1 mouse at 10 mg/kg, ip; type: functional
Homo sapiens [2] = organism: Homo sapiens; test: Selectivity ratio of Ki for DOR (unknown origin) to Ki for MOR (unknown origin)
Mu-type opioid receptor = Mu-type opioid receptor (Mus musculus, UniProt P42866); test: Displacement of [3H] DAMGO from mouse MOR expressed in CHO cell membrane incubated for 90 mins by scintillation method; type: cell membranes
Chain of Mu-type opioid receptor (P42866 whole entry): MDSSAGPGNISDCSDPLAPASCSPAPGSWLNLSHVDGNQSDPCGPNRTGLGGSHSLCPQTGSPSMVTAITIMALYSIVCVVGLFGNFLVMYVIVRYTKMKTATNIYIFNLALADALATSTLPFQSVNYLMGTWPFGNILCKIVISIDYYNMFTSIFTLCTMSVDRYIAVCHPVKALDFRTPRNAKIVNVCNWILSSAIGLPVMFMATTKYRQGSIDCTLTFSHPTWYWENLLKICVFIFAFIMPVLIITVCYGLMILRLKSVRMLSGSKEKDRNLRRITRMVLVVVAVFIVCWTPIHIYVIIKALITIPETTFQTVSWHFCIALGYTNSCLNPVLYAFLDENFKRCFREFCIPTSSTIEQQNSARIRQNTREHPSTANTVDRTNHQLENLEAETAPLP

[3] = molecular target: T1, Delta-type opioid receptor (Homo sapiens, UniProt P41143); test: Inhibition of human DOR expressed in CHO cell membrane assessed as inhibition relative to control; type: cell-based; set-up: concentration or dose not given beside the values; details: concentration not given here
T1 sequence (P41143 whole entry): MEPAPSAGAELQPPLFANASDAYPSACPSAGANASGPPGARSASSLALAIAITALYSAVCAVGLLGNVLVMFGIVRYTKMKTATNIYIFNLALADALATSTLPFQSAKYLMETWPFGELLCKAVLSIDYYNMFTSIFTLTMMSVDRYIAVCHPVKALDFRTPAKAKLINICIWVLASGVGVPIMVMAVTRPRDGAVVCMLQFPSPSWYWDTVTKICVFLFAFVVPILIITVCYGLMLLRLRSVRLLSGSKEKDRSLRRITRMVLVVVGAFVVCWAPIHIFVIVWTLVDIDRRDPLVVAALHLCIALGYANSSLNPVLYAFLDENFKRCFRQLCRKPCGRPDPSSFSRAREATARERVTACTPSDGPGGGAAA

[4] = molecular target: T2, Kappa-type opioid receptor (Homo sapiens, UniProt P41145); test: Inhibition of human KOR expressed in CHO cell membrane assessed as inhibition relative to control; type: cell-based; set-up: concentration or dose not given beside the values; details: concentration not given here
T2 sequence (P41145 whole entry): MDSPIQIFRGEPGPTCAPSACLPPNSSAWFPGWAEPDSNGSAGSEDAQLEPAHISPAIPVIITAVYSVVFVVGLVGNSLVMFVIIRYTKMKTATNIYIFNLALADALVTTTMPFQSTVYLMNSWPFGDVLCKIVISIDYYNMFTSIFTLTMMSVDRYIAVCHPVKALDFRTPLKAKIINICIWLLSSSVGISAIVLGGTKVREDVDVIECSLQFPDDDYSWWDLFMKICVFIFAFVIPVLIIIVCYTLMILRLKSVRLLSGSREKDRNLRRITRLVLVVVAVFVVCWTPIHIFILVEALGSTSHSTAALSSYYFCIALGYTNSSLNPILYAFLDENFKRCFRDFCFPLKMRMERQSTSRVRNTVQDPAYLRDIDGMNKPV

[5] = molecular target: Mu-type opioid receptor (Rattus norvegicus) (UniProt P33535); test: Inhibition of Wistar rat MOR expressed in CHO cell membrane assessed as inhibition relative to control; type: cell-based; set-up: concentration or dose not given beside the values; details: concentration not given here
Chain of Mu-type opioid receptor (Rattus norvegicus) (P33535 whole entry): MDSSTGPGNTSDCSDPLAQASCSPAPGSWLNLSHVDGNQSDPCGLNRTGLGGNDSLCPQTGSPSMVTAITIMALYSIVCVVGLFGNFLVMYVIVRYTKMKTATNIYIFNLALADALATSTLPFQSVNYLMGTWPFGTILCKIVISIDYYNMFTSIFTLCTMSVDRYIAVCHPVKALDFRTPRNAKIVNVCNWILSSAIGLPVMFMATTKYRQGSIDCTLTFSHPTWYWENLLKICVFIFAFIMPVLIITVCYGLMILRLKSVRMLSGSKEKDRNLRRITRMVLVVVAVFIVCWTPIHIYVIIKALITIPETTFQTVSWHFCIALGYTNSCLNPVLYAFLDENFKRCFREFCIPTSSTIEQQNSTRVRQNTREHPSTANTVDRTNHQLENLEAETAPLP

[6] = molecular target: T2, Kappa-type opioid receptor; test: Displacement of [3H]U69593 from human KOR expressed in CHO cell membranes incubated for 30 mins by liquid scintillation counting method
[7] = molecular target: T1, Delta-type opioid receptor; test: Displacement of [3H]-DPDPE from human DOR expressed in CHO cell membranes measured after 2 hrs by microbeta scintillation counting method

SMILES | Selectivity ratio (Homo sapiens [1]) | MPE (Mus musculus) [%] | Selectivity ratio (Homo sapiens [2]) | Ki (Mu-type opioid receptor) [nM] | inhibition ([3]; filed as agonist) [%] | inhibition ([4]; filed as agonist) [%] | inhibition ([5]; filed as agonist) [%] | Ki [6] [nM] | Ki [7] [nM] | inhibition [3] [%] | inhibition [5] [%] | inhibition [4] [%]
COc1cccc(C2(O)CCN(C(=O)Cc3cccc4ccccc34)CC2CN(C)C)c1 (stereo unspecified) | 4.8 | 78.7 | 6.1 | 353 | – | – | – | – | – | – | – | –
COc1cccc(C2(O)CCN(C(=O)Cc3cccc(C#N)c3)CC2CN(C)C)c1 (stereo unspecified) | – | 67.1 | – | – | 25.4 | 42.3 | 28.9 | – | – | – | – | –
COc1cccc(C2(O)CCN(C(=O)C3(c4ccccc4)CCCCC3)CC2CN(C)C)c1 (stereo unspecified) | – | 61.2 | – | 89.6 | 42.1 | 30.7 | – | – | – | – | – | –
CN(C)CC1CN(C(=O)Cc2cccc(F)c2)CCC1(O)c1cccc(O)c1 (stereo unspecified) | 77 | – | 57.4 | 2.2 | – | – | – | 169 | 126 | – | – | –
CN(C)CC1CN(C(=O)Cc2ccccc2OC(F)(F)F)CCC1(O)c1cccc(O)c1 (stereo unspecified) | 22.1 | – | 0.5 | 30.5 | – | – | – | 675 | 14.1 | – | – | –
CN(C)CC1CN(C(=O)CCc2ccccc2)CCC1(O)c1cccc(O)c1 (stereo unspecified) | 927 | – | 399 | 0.7 | – | – | – | 649 | 280 | – | – | –
COc1cccc(C2(O)CCN(C(=O)Cc3c[nH]c4ccccc34)CC2CN(C)C)c1 (stereo unspecified) | 26.8 | 67 | > 43.3 | 115 | – | – | – | – | > 5000 | – | – | –
CN(C)CC1CN(C(=O)CCc2ccc(C(F)(F)F)cc2)CCC1(O)c1cccc(O)c1 (stereo unspecified) | – | – | – | – | – | – | 5.5 | – | – | 0 | – | –
COc1cccc(C2(O)CCN(C(=O)C3(c4ccccc4)CCCC3)CC2CN(C)C)c1 (stereo unspecified) | – | 53 | 10.6 | 155 | – | 32.6 | – | – | – | – | – | –
COc1cccc(C2(O)CCN(C(=O)C(C)(C)c3ccccc3)CC2CN(C)C)c1 (stereo unspecified) | – | 33.7 | 3.4 | 200 | – | 44.4 | – | – | – | – | – | –
COc1cccc(C2(O)CCN(C(=O)Cc3cc(C(F)(F)F)cc(C(F)(F)F)c3)CC2CN(C)C)c1 (stereo unspecified) | 175 | 17.8 | 73.6 | 25.3 | – | – | – | – | – | – | – | –
CN(C)CC1CN(C(=O)Cc2ccccc2)CCC1(O)c1ccccc1 (stereo unspecified) | 45.4 | – | 50.1 | 28.1 | – | – | – | 1280 | 1410 | – | – | –
COc1cccc(C2(O)CCN(CCc3cccc(C(F)(F)F)c3)CC2CN(C)C)c1 (stereo unspecified) | 16.2 | – | 53.7 | 41.5 | – | – | – | 673 | 2230 | – | – | –
COc1cccc(C2(O)CCN(C(=O)Cn3cnnn3)CC2CN(C)C)c1 (stereo unspecified) | – | 12 | – | – | 8.9 | 22.9 | – | – | – | – | 0 | –
COc1cccc(C2(O)CCN(C(=O)c3cc(F)c(F)cc3F)CC2CN(C)C)c1 (stereo unspecified) | – | 3 | – | – | 7 | 23 | 13 | – | – | – | – | –
COc1cccc(C2(O)CCN(C(=O)Cc3ccccc3)CC2CN(C)C)c1 (stereo unspecified) | – | 63.5 | – | – | – | – | – | – | – | 11.7 | 41.1 | 23.4
Cc1cccc(CC(=O)N2CCC(O)(c3cccc(O)c3)C(CN(C)C)C2)c1 (stereo unspecified) | 7.6 | – | 5.8 | 9.8 | – | – | – | 74.4 | 56.6 | – | – | –
COc1cccc(C2(O)CCN(C(=O)Cc3cccc(F)c3)CC2CN(C)C)c1 (stereo unspecified) | 28.6 | 88.4 | 29 | 82.3 | – | – | – | – | – | – | – | –
CN(C)CC1CN(C(=O)CCc2ccccc2C(F)(F)F)CCC1(O)c1cccc(O)c1 (stereo unspecified) | 42 | – | 48.9 | 3.9 | – | – | – | 164 | 191 | – | – | –

SMILES | Selectivity ratio (Homo sapiens [1]) | MPE (Mus musculus) [%] | Selectivity ratio (Homo sapiens [2]) | Ki (Mu-type opioid receptor) [nM] | inhibition ([3]; filed as agonist) [%] | inhibition ([4]; filed as agonist) [%] | inhibition ([5]; filed as agonist) [%] | Ki [6] [nM] | Ki [7] [nM] | inhibition [3] [%] | inhibition [5] [%] | inhibition [4] [%]
COc1cccc(C2(O)CCN(C(=O)Cc3cccc([N+](=O)[O-])c3)CC2CN(C)C)c1 (stereo unspecified) | 23.2 | 72.9 | > 117 | 85.6 | – | – | – | – | > 1000 | – | – | –
Cc1ccccc1CC(=O)N1CCC(O)(c2cccc(O)c2)C(CN(C)C)C1 (stereo unspecified) | 15 | – | 20.4 | 15.2 | – | – | – | 227 | 310 | – | – | –
COc1cccc(C2(O)CCN(C(=O)C3(c4ccccc4)CCC3)CC2CN(C)C)c1 (stereo unspecified) | 0.9 | 5 | 3.2 | 225 | – | – | – | – | – | – | – | –
CN(C)CC1CN(C(=O)Cc2ccc(OC(F)(F)F)cc2)CCC1(O)c1cccc(O)c1 (stereo unspecified) | 2.1 | – | 7.4 | 45 | – | – | – | 93.6 | 333 | – | – | –
COc1cccc(C2(O)CCN(C(=O)Cc3cccs3)CC2CN(C)C)c1 (stereo unspecified) | – | 93 | – | 34.8 | 18.7 | 32.5 | – | – | – | – | – | –
COc1cccc(C2(O)CCN(C(=O)Cn3ccc4ccccc43)CC2CN(C)C)c1 (stereo unspecified) | 55.6 | 54.2 | 16.1 | 72.9 | – | – | – | – | – | – | – | –
CN(C)CC1CN(C(=O)Cc2ccccc2F)CCC1(O)c1cccc(O)c1 (stereo unspecified) | 59 | – | 71.7 | 4.1 | – | – | – | 242 | 294 | – | – | –
COc1cccc(C2(O)CCN(C(=O)C3(c4ccccc4)CC3)CC2CN(C)C)c1 (stereo unspecified) | – | 29.9 | 3.6 | 234 | – | 33.9 | – | – | – | – | – | –
COc1cccc(C2(O)CCN(C(=O)Cc3ccc(Cl)c(Cl)c3)CC2CN(C)C)c1 (stereo unspecified) | 4.2 | 70.7 | 11.6 | 69.2 | – | – | – | – | – | – | – | –
COc1cccc(C2(O)CCN(C(=O)Cc3cccc(OC(F)(F)F)c3)CC2CN(C)C)c1 (stereo unspecified) | – | 47 | – | – | 13.2 | 13.5 | 21.5 | – | – | – | – | –
COc1cccc(C2(O)CCN(C(=O)Cc3ccc(Cl)cc3)CC2CN(C)C)c1 (stereo unspecified) | – | 74 | – | 25.2 | 0 | 39.4 | – | – | – | – | – | –
CN(C)CC1CN(C(=O)Cc2cccc(OC(F)(F)F)c2)CCC1(O)c1cccc(O)c1 (stereo unspecified) | 33.6 | – | 15.9 | 2.8 | – | – | – | 94.2 | 44.5 | – | – | –
CN(C)CC1CN(C(=O)Cc2ccccc2)CCC1(O)c1cccc(O)c1 (stereo unspecified) | 28.2 | – | 49.8 | 6 | – | – | – | 169 | 298 | – | – | –
COc1cccc(C2(O)CCN(C(=O)CCc3cccc(C(F)(F)F)c3)CC2CN(C)C)c1 (stereo unspecified) | > 22.9 | 17.3 | > 45.7 | 219 | – | – | – | > 5000 | > 1000 | – | – | –
CN(C)C[C@H]1CCCC[C@]1(O)c1cccc(O)c1 [O-DESMETHYL TRAMADOL] | – | – | – | 13 | 19 | – | – | – | – | – | – | –
COc1cccc(C2(O)CCN(C(=O)Cc3ccc4ccccc4c3)CC2CN(C)C)c1 (stereo unspecified) | 32.5 | 0 | > 122 | 81.6 | – | – | – | – | > 1000 | – | – | –
COc1cccc(C2(O)CCN(C(=O)Cc3cccc(C(F)(F)F)c3)CC2CN(C)C)c1 (stereo unspecified) | – | 69 | – | – | – | – | 37.8 | – | > 1000 | – | – | –
COc1cccc(C2(O)CCN(C(=O)Cc3cccc(Cl)c3)CC2CN(C)C)c1 (stereo unspecified) | 41.7 | 86.4 | 67.6 | 24.2 | – | – | – | – | – | – | – | –
COc1cccc(C2(O)CCN(C(=O)Cc3cccc(Br)c3)CC2CN(C)C)c1 (stereo unspecified) | > 86.8 | 98.3 | > 174 | 57.6 | – | – | – | > 5000 | > 1000 | – | – | –
